Source: patent US20120321571A1, “PARABEN COMPOSITIONS” (ANTERIOS, INC., priority 2011, published 2012)

Test system: axillary sweating
Assay: Clinical study of the effect of Propylparaben on axillary sweating (gravimetric sweat measurement)
Format: in vivo, human

CCCOC(=O)c1ccc(O)cc1 [Propylparaben]
greater effectiveness in reducing sweat production than placebo (by responder assessment) (based on percent of subjects with at least 30% reduction versus Baseline, versus placebo (water)): 245% | conclusion on activity in reducing sweat production (overall conclusion of the clinical study): biologically active in reducing sweat production | reduction in sweat production (average), gravimetric sweat measurement (subjects with moderate to severe primary axillary hyperhidrosis, single topical treatment, 0.20 mg per axilla, two weeks after treatment, 5 minute collection): 177 mg | percent of subjects with at least a 30% reduction in sweat production compared to Baseline (two weeks after single topical treatment, 0.20 mg per axilla, gravimetric sweat measurement): 70% | greater reduction in sweat production than the control (placebo) group (two weeks after single topical treatment, 0.20 mg per axilla, versus placebo (water)): 337%
